The record followed here is US8273754B2, “Substituted 1H-pyrazolo[3,4-D]pyrimidine-6-amine compounds” (ArQule, Inc., priority 2008, dated 2012).

The test has as its system cancer cells. Put plainly: MTS cell growth inhibition assay (72 hours). The format is cell-based. The method, boiled down:
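Growth inhibition read as formazan absorbance at 492 nm after 4 h MTS/PMS, following 72 h compound exposure at 37 °C in 1% FBS DMEM (cells pre-seeded 18 h). IC50 = 50% absorbance reduction; inhibition graded in bands.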

Where [1] appears, read: Homo sapiens, DLD-1, 72 h, DLD-1 cells, read-out: DLD-1 MTS 72 hr at 10 μM.
Setting [2] is: Homo sapiens, KATO III, 72 h, KATO III cells, read-out: KATO III MTS 72 hr at 10 μM.
[3] abbreviates: Homo sapiens, MDA-MB-231, 72 h, MDA-MB-231 cells, read-out: MDA-MB-231 MTS 72 hr at 10 μM.
Setting [4] is: Homo sapiens, NCI-H1299, 72 h, NCI-H1299 cells, read-out: NCI-H1299 MTS 72 hr at 10 μM.
The mark [5] stands for this setting: PaCa-2, 72 h, PACA-2 cells, read-out: PACA-2 MTS 72 hr at 10 μM.

Read-outs that look alike come from different tables or passages of the source.

`COc1ccc(CC(=O)N2CC(Nc3nc(N)nc4[nH]ncc34)Cc3ccccc32)cc1OC` (centres unmarked) [Compound 95, 1-(3-(6-amino-1H-pyrazolo[3,4-d]pyrimidin-4-ylamino)-3,4-dihydroquinolin-1(2H)-yl)-2-(3,4-dimethoxyphenyl)ethanone]: the inhibition at 10 µM is < 50% under setting [1]; < 50% under setting [2]; < 50% under setting [3]; < 50% under setting [4]; < 50% under setting [5].

`CC1(C(=O)N2CC(Nc3nc(N)nc4[nH]ncc34)Cc3ccccc32)CCCCC1` (centres unmarked) [Compound 96, (3-(6-amino-1H-pyrazolo[3,4-d]pyrimidin-4-ylamino)-3,4-dihydroquinolin-1(2H)-yl)(1-methylcyclohexyl)methanone]: the inhibition at 10 µM is, setting by setting: under setting [1], < 50%; under setting [2], < 50%; under setting [3], < 50%; under setting [4], < 50%; under setting [5], < 50%.

As for `CC(C)(C)c1ccc(OCC(=O)N2CC(Nc3nc(N)nc4[nH]ncc34)Cc3ccccc32)cc1` (centres unmarked) [Compound 97, 1-(3-(6-amino-1H-pyrazolo[3,4-d]pyrimidin-4-ylamino)-3,4-dihydroquinolin-1(2H)-yl)-2-(4-tert-butylphenoxy)ethanone], the inhibition at 10 µM reads like this: under setting [1], 50 to 79%; under setting [2], 50 to 79%; under setting [3], 50 to 79%; under setting [4], < 50%; under setting [5], < 50%.

With `Nc1nc(NC2Cc3ccccc3N(C(=O)Cc3cccc4ccccc34)C2)c2cn[nH]c2n1` (centres unmarked) [Compound 98, 1-(3-(6-amino-1H-pyrazolo[3,4-d]pyrimidin-4-ylamino)-3,4-dihydroquinolin-1(2H)-yl)-2-(naphthalen-1-yl)ethanone], the inhibition at 10 µM was < 50% under setting [1]; < 50% under setting [2]; < 50% under setting [3]; < 50% under setting [4]; < 50% under setting [5].

In the case of `Nc1nc(NC2Cc3ccccc3N(C(=O)c3c(F)cccc3Cl)C2)c2cn[nH]c2n1` (centres unmarked) [Compound 99, (3-(6-amino-1H-pyrazolo[3,4-d]pyrimidin-4-ylamino)-3,4-dihydroquinolin-1(2H)-yl)(2-chloro-6-fluorophenyl)methanone], the inhibition at 10 µM is, setting by setting: under setting [1], < 50%; under setting [2], < 50%; under setting [3], < 50%; under setting [4], < 50%; under setting [5], < 50%.

On to `Nc1nc(NC2Cc3ccccc3N(C(=O)c3ccc(C(F)(F)F)c(F)c3)C2)c2cn[nH]c2n1` (centres unmarked) [Compound 100, (3-(6-amino-1H-pyrazolo[3,4-d]pyrimidin-4-ylamino)-3,4-dihydroquinolin-1(2H)-yl)(3-fluoro-4-(trifluoromethyl)phenyl)methanone], for which the inhibition at 10 µM is < 50% under setting [1]; < 50% under setting [2]; < 50% under setting [3]; < 50% under setting [4]; < 50% under setting [5].

In the case of `COc1cccc(CC(=O)N2CC(Nc3nc(N)nc4[nH]ncc34)Cc3ccccc32)c1` (centres unmarked) [Compound 101, 1-(3-(6-amino-1H-pyrazolo[3,4-d]pyrimidin-4-ylamino)-3,4-dihydroquinolin-1(2H)-yl)-2-(3-methoxyphenyl)ethanone], the inhibition at 10 µM is, setting by setting: under setting [1], > 79%; under setting [2], < 50%; under setting [3], 50 to 79%; under setting [4], < 50%; under setting [5], < 50%.

`Nc1nc(NC2Cc3ccccc3N(C(=O)CCc3ccccc3)C2)c2cn[nH]c2n1` (centres unmarked) [Compound 102, 1-(3-(6-amino-1H-pyrazolo[3,4-d]pyrimidin-4-ylamino)-3,4-dihydroquinolin-1(2H)-yl)-3-phenylpropan-1-one]: the inhibition at 10 µM runs as follows: under setting [1], < 50%; under setting [2], < 50%; under setting [3], < 50%; under setting [4], < 50%; under setting [5], < 50%.

Regarding `Nc1nc(NC2Cc3ccccc3N(C(=O)C3CCC3)C2)c2cn[nH]c2n1` (centres unmarked) [Compound 103, (3-(6-amino-1H-pyrazolo[3,4-d]pyrimidin-4-ylamino)-3,4-dihydroquinolin-1(2H)-yl)(cyclobutyl)methanone], the inhibition at 10 µM reads like this: under setting [1], > 79%; under setting [2], > 79%; under setting [3], > 79%; under setting [4], > 79%; under setting [5], > 79%.

As for `Nc1nc(NC2Cc3ccccc3N(C(=O)c3c(F)ccc(Cl)c3F)C2)c2cn[nH]c2n1` (centres unmarked) [Compound 104, (3-(6-amino-1H-pyrazolo[3,4-d]pyrimidin-4-ylamino)-3,4-dihydroquinolin-1(2H)-yl)(3-chloro-2,6-difluorophenyl)methanone], the inhibition at 10 µM reads like this: under setting [1], < 50%; under setting [2], < 50%; under setting [3], < 50%; under setting [4], < 50%; under setting [5], < 50%.

Consider `COc1ccc(OC)c(CC(=O)N2CC(Nc3nc(N)nc4[nH]ncc34)Cc3ccccc32)c1` (centres unmarked) [Compound 105, 1-(3-(6-amino-1H-pyrazolo[3,4-d]pyrimidin-4-ylamino)-3,4-dihydroquinolin-1(2H)-yl)-2-(2,5-dimethoxyphenyl)ethanone], for which the inhibition at 10 µM under setting [1] is < 50%; the inhibition at 10 µM under setting [2] was < 50%; the inhibition at 10 µM under setting [3] is < 50%; the inhibition at 10 µM under setting [4] was < 50%; the inhibition at 10 µM under setting [5] is < 50%.

For the compound `Nc1nc(NC2Cc3ccccc3N(C(=O)NCCc3cccc(Cl)c3)C2)c2cn[nH]c2n1` (centres unmarked) [Compound 106, 3-(6-amino-1H-pyrazolo[3,4-d]pyrimidin-4-ylamino)-N-(3-chlorophenethyl)-3,4-dihydroquinoline-1(2H)-carboxamide], the inhibition at 10 µM is < 50% under setting [1]; < 50% under setting [2]; < 50% under setting [3]; < 50% under setting [4]; < 50% under setting [5].

As for `CCc1ccccc1NC(=O)N1CC(Nc2nc(N)nc3[nH]ncc23)Cc2ccccc21` (centres unmarked) [Compound 107, 3-(6-amino-1H-pyrazolo[3,4-d]pyrimidin-4-ylamino)-N-(2-ethylphenyl)-3,4-dihydroquinoline-1(2H)-carboxamide], the inhibition at 10 µM is < 50% under setting [1]; < 50% under setting [2]; < 50% under setting [3]; < 50% under setting [4]; < 50% under setting [5].

On to `Nc1nc(NC2Cc3ccccc3N(C(=O)Nc3cc(C(F)(F)F)ccc3F)C2)c2cn[nH]c2n1` (centres unmarked) [Compound 108, 3-(6-amino-1H-pyrazolo[3,4-d]pyrimidin-4-ylamino)-N-(2-fluoro-5-(trifluoromethyl)phenyl)-3,4-dihydroquinoline-1(2H)-carboxamide], for which the inhibition at 10 µM was < 50% under setting [1]; < 50% under setting [2]; < 50% under setting [3]; < 50% under setting [4]; < 50% under setting [5].

For `COc1ccc(CCNC(=O)N2CC(Nc3nc(N)nc4[nH]ncc34)Cc3ccccc32)cc1OC` (centres unmarked) [Compound 109, 3-(6-amino-1H-pyrazolo[3,4-d]pyrimidin-4-ylamino)-N-(3,4-dimethoxyphenethyl)-3,4-dihydroquinoline-1(2H)-carboxamide], the inhibition at 10 µM under setting [1] is < 50%; the inhibition at 10 µM under setting [2] was < 50%; the inhibition at 10 µM under setting [3] was < 50%; the inhibition at 10 µM under setting [4] was < 50%; the inhibition at 10 µM under setting [5] is < 50%.

With `Cc1ccc(CNC(=O)N2CC(Nc3nc(N)nc4[nH]ncc34)Cc3ccccc32)cc1` (centres unmarked) [Compound 110, 3-(6-amino-1H-pyrazolo[3,4-d]pyrimidin-4-ylamino)-N-(4-methylbenzyl)-3,4-dihydroquinoline-1(2H)-carboxamide], the inhibition at 10 µM is, setting by setting: under setting [1], < 50%; under setting [2], < 50%; under setting [3], < 50%; under setting [4], < 50%; under setting [5], < 50%.

On to `Cc1ccccc1CNC(=O)N1CC(Nc2nc(N)nc3[nH]ncc23)Cc2ccccc21` (centres unmarked) [Compound 111, 3-(6-amino-1H-pyrazolo[3,4-d]pyrimidin-4-ylamino)-N-(2-methylbenzyl)-3,4-dihydroquinoline-1(2H)-carboxamide], for which the inhibition at 10 µM under setting [1] is < 50%; the inhibition at 10 µM under setting [2] was < 50%; the inhibition at 10 µM under setting [3] was < 50%; the inhibition at 10 µM under setting [4] is < 50%; the inhibition at 10 µM under setting [5] was < 50%.

Consider `CC(C)c1cccc(C(C)C)c1NC(=O)N1CC(Nc2nc(N)nc3[nH]ncc23)Cc2ccccc21` (centres unmarked) [Compound 112, 3-(6-amino-1H-pyrazolo[3,4-d]pyrimidin-4-ylamino)-N-(2,6-diisopropylphenyl)-3,4-dihydroquinoline-1(2H)-carboxamide], for which the inhibition at 10 µM is < 50% under setting [1]; < 50% under setting [2]; < 50% under setting [3]; < 50% under setting [4]; < 50% under setting [5].

As for `Cc1cc([N+](=O)[O-])ccc1NC(=O)N1CC(Nc2nc(N)nc3[nH]ncc23)Cc2ccccc21` (centres unmarked) [Compound 113, 3-(6-amino-1H-pyrazolo[3,4-d]pyrimidin-4-ylamino)-N-(2-methyl-4-nitrophenyl)-3,4-dihydroquinoline-1(2H)-carboxamide], the inhibition at 10 µM by setting is: under setting [1], > 79%; under setting [2], > 79%; under setting [3], > 79%; under setting [4], > 79%; under setting [5], > 79%.
